Results: US7115589B2, “Purine derivatives” (ARIAD Pharmaceuticals, Inc., priority 1999, dated 2006)

A melting point of 117 to 118 °C was found for `CCOP(=O)(OCC)c1ccc(Nc2nc(C3CCCC3)nc3c2ncn3C(C)C)cc1` in this work.
